Source: US4454120A, “Analgesic dipeptide amides and method of use and compositions thereof” (Sterling Drug Inc., priority 1982, dated 1984)

Experiments:
Male Swiss-Webster mice = experiment: Mouse acetylcholine writhing test; assay type: in vivo; conditions: for ED50: Mus musculus, sc, subcutaneous, approximate values
Procedure: Male Swiss-Webster mice each weighing 18-24 g. are treated subcutaneously (10 ml./kg. injection volume) or orally with the test compound in an aqueous vehicle. Twenty minutes thereafter each mouse is injected intraperitoneally with acetylcholine (3.2 mg./kg.) in aqueous sodium chloride (0.9%). This dose of acetylcholine causes one or more characteristic writhes in the two minute period following injection in control mice which receive the aqueous vehicle not containing the test compound. […] Test compounds are screened at doses of 100 and 30 mg./kg. subcutaneously and 300 and 100 mg./kg. orally using 15 mice at each dose level. ED50 values for active compounds are estimated by probit analysis of quantal scores at four or more dose levels using 15 mice at each dose level.

[1] = tested on: guinea pig ileum longitudinal muscle; experiment: Guinea pig ileum test (inhibition of electrically induced twitch); assay type: cell-based; conditions: ratio of IC50 of reference Met5-enkephalin (=100) to IC50 of test compound in the same preparation, averaged, usually N=4
Procedure: Adult male guinea pigs (Charles River, Hartley strain) weighing 300-500 g. are decapitated, and the terminal ileum is exposed by reflecting the overlying cecum, severed at the ileocecal juncture, and removed while cutting the mesenteric attachments to avoid excessive traction on the tissue. The ileum (about 30 cm. in length) is transferred to a beaker containing warm modified Krebs-Henseleit solution (118 mM sodium chloride, 4.75 mM potassium chloride, 2.54 mM calcium chloride, 1.19 mM potassium dihydrogen phosphate, 1.2 mM magnesium sulfate, 25 mM sodium bicarbonate, 11 mM glucose, 20 μM choline chloride and 0.125 μM pyrilamine maleate). The terminal (aboral) portion (about 10 cm. in length) is discarded, and segments (3-4 cm. in length) are cut from the remainder and gently slid onto a glass rod (5-6 mm. in diameter) and arranged so that the meseneteric attachment is in a straight line. A cotton swab moistened in the solution is then carefully used to separate the longitudinal muscle from the underlying circular muscle. The longitudinal muscle and adhering myenteric plexus is then gently removed from the remaining tissue with forceps.
Strips of this prepared longitudinal muscle are mounted in a double-jacketed organ bath (5 ml.) under tension (1.0 g.), connected to isometric transducers (Grass FT .03), bathed in the modified Krebs-Henseleit solution described above, aerated with oxygen-carbon dioxide (95:5) and maintained at 37° C.
Stimulators (Grass S-44) are set to deliver repetitive monophasic square wave field stimulation (supramaximal voltage, 0.10 Hz., 0.25 msec. duration) through platinum ring electrodes at the top and bottom of the bath. Regular contractions of the muscle, which result from electrically-induced liberation of acetylcholine from postganglionic parasympathetic nerves, are recorded on a polygraph (Grass model 5). Following tissue equilibration (45-60 min.) and repeated washing (every 10 min.) an aqueous solution of a reference or test compound is added to the bath in a microliter volume (1.25-250 μl) and reductions in muscle twitch height are recorded. More compound can be added […] first washing the preparation.
From the results a half-mazimal inhibitory concentration (IC50) value for the compound is computed by regression analysis of a linear plot of logarithm of concentration against percent of inhibition of twitch height (probits). The ratio of the IC50 value of a reference compound to that of a test compound tested in the same preparation is the molar potency ratio. Usually four preparations are tested simultaneously by the same person (N=4), and the resulting four molar potency ratios are averaged.
The following results were obtained using the examples as test compounds and Met^5 -enkephalin as the reference compound.

opiate receptor = conditions: rat brain membranes, relative to morphine; cited from earlier work
rat = rat tail flick, relative to morphine, cited from earlier work
guinea pig ileum = conditions: cited from earlier work
mouse vas deferens = conditions: cited from earlier work

| Compound | Average Molar Potency Ratio [1] | also measured |
| --- | --- | --- |
| CSCC[C@@H](NC(=O)[C@@H](N)Cc1ccc(O)cc1)C(=O)NCCCc1ccccc1.Cl.O [Example 1, L-tyrosyl-N-(3-phenylpropyl)-D-methioninamide monohydrochloride monohydrate] | 279 | ED50 (Male Swiss-Webster mice): > 30 mg/kg |
| CSCC[C@@H](NC(=O)[C@@H](N)Cc1ccc(O)cc1)C(=O)N(C)CCCc1ccccc1.Cl [Example 3, L-tyrosyl-N-methyl-N-(3-phenylpropyl)-D-methioninamide monohydrochloride] | 19 | – |
| CN(CCCc1ccccc1)C(=O)[C@@H](CC[S+](C)[O-])NC(=O)[C@@H](N)Cc1ccc(O)cc1.Cl.O (stereo partly drawn) [Example 4, L-tyrosyl-N-methyl-N-(3-phenylpropyl)-D-methioninamide S-oxide monohydrochloride monohydrate] | 5 | ED50 (Male Swiss-Webster mice): > 30 mg/kg |
| CN[C@@H](Cc1ccc(O)cc1)C(=O)N[C@@H](CCSC)C(=O)NCCCc1ccccc1.Cl.O [Example 5, N-methyl-L-tyrosyl-N-(3-phenylpropyl)-L-methioninamide monohydrochloride hydrate (4:1)] | 180 | 95% confidence limits of subcutaneous ED50 (Male Swiss-Webster mice): 5.0 to 12 mg/kg; subcutaneous ED50 (Male Swiss-Webster mice; acetylcholine 3.2 mg./kg. i.p. 20 min after the compound, probit analysis): 8.5 mg/kg |
| CSCC[C@H](C(=O)NCCCc1ccccc1)N(C)C(=O)[C@@H](N)Cc1ccc(O)cc1.Cl [Example 7, L-tyrosyl-N^2-methyl-N-(3-phenylpropyl)-D-methioninamide monohydrochloride] | 260 | – |
| CN(C(=O)[C@@H](N)Cc1ccc(O)cc1)[C@H](CC[S+](C)[O-])C(=O)NCCCc1ccccc1.Cl.O (stereo partly drawn) [Example 8, L-tyrosyl-N^2-methyl-N-(3-phenylpropyl)-D-methioninamide S-oxide monhydrochloride monohydrate] | 650 | – |
| Cl.NC(=O)CC[C@@H](NC(=O)[C@@H](N)Cc1ccc(O)cc1)C(=O)NCCCc1ccccc1.O [Example 9, L-tyrosyl-N^1-(3-phenylpropyl)-D-glutamamide monohydrochloride hydrate (4:3)] | 47 | – |
| C[C@@H](NC(=O)[C@@H](N)Cc1ccc(O)cc1)C(N)=O [H-Tyr-D-Ala-NH2] | – | times less affinity than morphine (opiate receptor): 830 times; times less potent than morphine, intravenously (rat; intravenous): greater than 10 times; times less potent than morphine, intraventricularly (rat; intraventricular): 200 times |
| C[C@@H](NC(=O)[C@@H](N)Cc1ccc(O)cc1)C(=O)NCCNCCc1ccccc1 [HTyrD-AlaNH(CH2)2 NH(CH2)2 Phenyl] | – | potency relative to Met-enkephalin (guinea pig ileum): < 1%; potency relative to Met-enkephalin (mouse vas deferens): < 1% |
| L-tyrosyl-N-(3-phenylpropyl)-D-methioninamide S-oxide monohydrochloride sesquihydrate [Example 2] | 1180 | – |
| L-tyrosyl-N-(3-phenylpropyl)-D-serinamide hydrate (3:2) [Example 10] | 15 | – |
| Met^5 -enkephalin [reference compound] | 100 | – |
| N-methyl-L-tyrosyl-N-(3-phenylpropyl)-D-methioninamide S-oxide monohydrochloride hemihydrate [Example 6] | 360 | – |
